Experiments:
Assay type in all cases: physicochemical
[1] = ΔlogD parameter (logDapp oct/buf − logDapp hex/buf); settings: 310.2 K; pH 7.4; cyclodextrin in buffer phase as in the label
Experimental: Apparent distribution coefficients of the compounds were measured in two systems: 1-octanol/buffer pH 7.4 and n-hexane/buffer pH 7.4 by the shake-flask technique at 310.2 ± 0.5 K in the absence (for IPN, INZ and iNAM) and in the presence of cyclodextrins (HP-β-CD and M-β-CD) in the aqueous phase (for IPN only). The concentrations of cyclodextrins were: 0.0115 M, 0.025 M and 0.035 M. The experiments were carried out according to the literature. In brief, the following experimental procedure was performed. Aqueous buffer pH 7.4 and organic solvent (1-octanol or n-hexane) were mixed during 48 h to obtain mutually saturated phases. The stock solutions containing the drug were prepared in buffer pH 7.4 saturated with the organic solvent. Both aliquots of the aqueous stock solution and organic solvent were placed in screwed glass vials and mixed at 310.2 ± 0.5 K during 3 days. The concentrations of the stock solutions were approximately 6.0 × 10^−3 M for both systems. […] The drug concentrations were determined using spectrophotometer (Cary-50 Varian, Palo Alto, CA, USA, Software Version 3.00 (339)). […] The distribution coefficients were calculated using the following equation:(6) DappOrg/buf=C2Org/buf⋅V^buf/Org/C2buf/Org⋅V^Org/buf where DappOrg/buf is the distribution coefficient calculated from the concentrations of the compounds expressed in molar scale, C2Org/buf and C2buf/Org are the molar concentrations of the drug in the mutually saturated organic solvent/buffer and buffer/organic solvent phases, respectively, and V^buf/Org and V^Org/buf are the volumes of the saturated buffer and organic solvent phases, respectively. […] As Abraham et al. stated, the difference between the distribution parameters in these systems ( ΔlogD ) can be applied to assess the specific interactions including a hydrogen-bonding impact to the drug transport properties and can be calculated as follows:(7) ΔlogD=logDappoct/buf−logDapphex/buf

[2] = Shake-flask solubility in n-hexane and dissolution thermodynamics; settings: T 290.2 K; value = S2 × 10^3
[3] = Shake-flask solubility in 1-octanol and dissolution thermodynamics; settings: T 290.2 K; value = S2 × 10^1
[4] = Shake-flask solubility in n-hexane and dissolution thermodynamics; settings: for Molar solubility S2 × 10^3 in n-Hexane: value = S2 × 10^3
Experimental: The solubility of the investigated drugs in 1-octanol and n-hexane was determined by the shake-flask technique. To this end, the glass vials containing the solutions with the excess amount of the compound were placed in an air thermostat and stirred at a predetermined temperature for no less than 24 h (equilibrium state). After this, the suspensions were left for 5 h or more to precipitate the undissolved drug and centrifuged (Biofuge pico, Thermo Electron LED GmbH, Langenselbold, Germany) at a predetermined temperature during 20 min (10,000 rpm). The aliquots of the clear solutions were taken and examined via a spectrophotometer (Cary-50 Varian, Palo Alto, CA, USA, Software Version 3.00 (339)). The molar concentrations of the compounds in the solvents were calculated using calibration curves at the appropriate wavelength characteristic for each substance. The experimental results were reported as an average of at least three replicated experiments with an accuracy of 2–4%. In order to evaluate the thermodynamic parameters of the IPN dissolution in 1-octanol and n-hexane, the molar solubility ( S2 ) was recalculated to the mole fraction ( X2 ) by the equation:(1) X2=M2S2/S2(M1−M2)+1000ρ, where M1 and M2 are the molar masses of IPN and organic solvent, respectively, and ρ (g∙cm^−3) is the density of the pure solvents. The linear functions describing the temperature dependences of the solubility within the temperature interval from 293.2 ± 0.5 K to 313.2 ± 0.5 K for both organic solvents were derived:(2) lnX2=A+B/T
The apparent solution enthalpies ΔHsol0 were determined by the van’t Hoff equation:(3) ∂(lnX2)/∂T=ΔHsol0/RT^2
The apparent dissolution Gibbs energies ( ΔGsol ) and entropies ( ΔSsol ) were calculated at a standard temperature of 298.2 K and 310.2 K:(4) ΔGsol298.2/310.2=−RT(lnX2298.2/310.2) (5) ΔGsol298.2/310.2=ΔHsol0−TΔSsol298.2/310.2 where R is the universal gas constant.

- ΔlogD [1]: 3.33
- Molar solubility S2 × 10^3 in n-Hexane [2]: 0.72 ± 0.01 × 10^3 (M)
- Molar solubility S2 × 10^1 in 1-Octanol [3]: 4.09 ± 0.08 × 10^1 (M)
- Molar solubility S2 × 10^3 in n-Hexane ([4]; T 293.2 K): 0.83 ± 0.03 × 10^3 (M)
- Molar solubility S2 × 10^3 in n-Hexane ([4]; T 298.2 K): 1.07 ± 0.02 × 10^3 (M)
- Molar solubility S2 × 10^3 in n-Hexane ([4]; T 303.2 K): 1.42 ± 0.03 × 10^3 (M)
- Molar solubility S2 × 10^3 in n-Hexane ([4]; T 310.2 K): 2.03 ± 0.04 × 10^3 (M)
- TΔSsol298.2 ([4]; n-hexane, 298.2 K): 4.3 ± 0.19 kcal/mol
- ΔGsol298.2 ([4]; n-hexane, 298.2 K): 5.26 ± 0.096 kcal/mol
- ζHsol ([4]; n-hexane, 298.2 K (first value of cell)): 69.0%
- ΔHsol298.2/310.2 ([4]; n-hexane, 298.2 K and 310.2 K): 9.56 ± 0.22 kcal/mol
- TΔSsol310.2 ([4]; n-hexane, 310.2 K): 4.49 ± 0.19 kcal/mol
- ΔGsol310.2 ([4]; n-hexane, 310.2 K): 5.07 ± 0.096 kcal/mol
- ζHsol ([4]; n-hexane, 310.2 K (second value of cell)): 68.0%
Structure (SMILES): CC(C)NNC(=O)c1ccncc1 [IPN, N′-isopropyl isonicotinic hydrazide]

From PMC10224004, “Modulation of Distribution and Diffusion through the Lipophilic Membrane with Cyclodextrins Exemplified by a Model Pyridinecarboxamide Derivative” (Pharmaceutics, 2023)
